In general, melting point refers to the temperature of the solid-liquid transition.

Structures are written as SMILES. A value given as a limit tells only on which side of the number the result lay.

Turning to `Cc1ccc(C=NNc2ccc(S(N)(=O)=O)cc2)cc1`, the melting point was in the range of 216 to 218 °C.

The compound `C1=C(c2c[nH]c3ccccc23)CCN(CCc2csc3ccccc23)C1` came in with a melting point of 195 to 198 °C.

`CCCCCCCCCCc1ccc2cc(/C=C/c3cc4ccc(CCCCCCCCCC)cc4cc3SC)c(SC)cc2c1` had a melting point of 117 to 118 °C. The figure for `Oc1ccc2cnccc2c1` is 218 to 220 °C; for `COc1cccc(-c2cncc(OC3SCC(OC(C)=O)C(OC(C)=O)C3OC(C)=O)c2)c1` (centres undefined) it is 112 to 115 °C. In the case of `CC(C)Sc1ccc(NC(=O)C2(C)CC2)cc1C(F)(F)F`, the melting point fell in the range of 103 to 105 °C.

The compound `Cn1c([N+](=O)[O-])cnc1COc1ccc(C(F)(F)F)cc1[N+](=O)[O-]` came in with a melting point of 126 °C.

`COc1cc(OC)c(-c2nc3cccnc3[nH]2)cc1C=CC(=O)c1ccc(S(N)(=O)=O)cc1` had a melting point greater than 260 °C. As to `COc1ccc(CN(C(=O)Nc2ccc(C(=O)O)cc2)c2ccc3c(c2)C(C)(C)CCC3(C)C)cc1`, the melting point was 117 to 121 °C. The figure for `Nc1ccc(N=Nc2ccc(N)c(C(F)(F)F)c2)c(C(F)(F)F)c1` is 136 °C; for `O=c1[nH]c2ncc(-c3ccc4cc[nH]c4c3)nc2n1CC1CCCCC1` it is 359 to 363 °C; for `CCn1nc(-c2ccc(F)cc2)c(C(C)=O)c(Nc2cccc3ncccc23)c1=O` it is 218 °C.

`O=C(Nc1ccc(-c2cccc(C(=O)O)c2)cc1)OCC1c2ccccc2-c2ccccc21` displayed a melting point of 226 to 228 °C. Next, `FC(F)(F)c1cccc2c(-c3ccccc3)c(-c3ccccc3)cnc12`: 181 to 183 °C; `NC1=NN(/C=N/O)C(=O)C1Cc1ccccc1` (centres undefined): 105 to 108 °C. The figure for `CC#CC(C)(C)NC(=O)C(CC)Oc1cc(C#N)cc(OC)c1` (centres undefined) is 97 to 98 °C; for `N#Cc1cnc2cc(Br)ccc2c1Nc1ccc(Cl)cc1Cl` it is 180 to 183 °C. For `CCOC(=O)c1cnc2sc(-c3cccnc3)nn2c1=O`, the melting point lay in the range of 200 to 202 °C. Next, `CCCC(Sc1cc(C(C)(C)C)c(O)c(C(C)(C)C)c1)C(=O)Nc1c(C)cccc1C` (centres undefined): 137 to 140 °C. Next, `CC1(C)CCc2c(ccc3c2C(=O)C=C(O)C3=O)O1`: 184 to 187 °C; `COc1ccc2cc(-c3cc4c(cc3[N+](=O)[O-])OCO4)ccc2c1`: 165 to 167 °C; `COc1ccc(C2(O)CCN(CC3CN(c4cccc(OC)c4)C(=O)O3)CC2)cc1` (centres undefined): 158 to 160 °C. With `COc1cc2c(cc1OC)C(CN1CCN(c3ccc(F)cc3)CC1)OCCC2` (centres undefined), the melting point was 135 to 136 °C.

`Cc1n[nH]c(Cn2ccnc2C)c1Oc1cc(Cl)cc(C#N)c1` registered a melting point of 212 to 214 °C.

Regarding `COc1ccccc1-c1cc(N)c(S(N)(=O)=O)cc1C`, the melting point is 172 to 175 °C.

`CC(=O)OCC1OC(OC2C(COC(C)=O)OC(Oc3ccc(N)cc3)C(OC(C)=O)C2OC(C)=O)C(OC(C)=O)C(OC(C)=O)C1OC(C)=O` (centres undefined) returned a melting point of 174 to 176 °C. The figure for `COc1ccc(N2CCOCC2)c2sc(-c3nc4ccc(N5CCCC5)nc4[nH]3)nc12` is 264 to 268 °C; for `CC(C)(C)OC(=O)[C@@H]1C[C@H](c2ccccc2)CN1` it is 62 °C. Next, `N#Cc1cccc2[nH]c(C(=O)O)cc(=O)c12`: 278 to 279 °C. The figure for `Cc1cnc(N2CCNCC2)c2ccoc12` is 112 °C; for `CC(C)NC(=O)c1cnc(N2CCC(N3C(=O)OCc4ccccc43)CC2)c(Cl)c1` it is 216 °C. `CC(C)(C)CC(C)(C)c1cc(-n2nc3ccc(C(=O)O)cc3n2)c(O)c(C(C)(C)c2ccccc2)c1` had a melting point of 219 to 221 °C. The figure for `Cc1nc2scc(C)n2c(=O)c1CCN1CCC(=C(c2ccc(F)cc2)c2ccc(F)cc2)CC1` is 184 °C; for `COc1cccc(Cc2cc3cccc(-c4cccc(C(=O)NC5CCOCC5)c4)c3o2)c1` it is 146 to 147 °C; for `CCCCN(Cc1ccc(-c2ccccc2-c2nnnn2C(c2ccccc2)(c2ccccc2)c2ccccc2)cc1)c1cc(C)nc(C)n1` it is 125 to 127 °C. Next, `CCN(CC)CCc1nc(Cn2cnc3c2c(=O)n(C)c(=O)n3C)no1`: 69 to 70 °C; `NCc1ccc(Br)nc1`: 57 to 58 °C; `Cc1ccc(C(=O)c2cc(CN(C)C)c(O)c(C(C)(C)C)c2)s1`: 119 to 120 °C.

`BrCCCCCCCCn1nnc(-c2ccccc2)c1-c1ccccc1` gave a melting point of 90 to 91 °C. The figure for `CC(C)(C)OC(=O)CN1C(=O)C=C(CC(NC(=O)OC(C)(C)C)C(=O)OC(C)(C)C)C1=O` (centres undefined) is 88.5 to 89.5 °C; for `Nc1ccccc1C(=O)N1Cc2ccccc2C(=O)N1` it is 156 to 157 °C; for `Clc1ncnc(Cl)c1I` it is 135 to 136 °C. The figure for `Cc1cccc(-c2nc3cccnn3c2-c2ccnc(Nc3ccccc3C)c2)c1` is 208 to 209 °C; for `CCCc1nn(-c2ccc(C(F)(F)F)cn2)cc1CCCOc1nn(C)cc1CCC(=O)O` it is 103 to 104 °C; for `ClC(=NNc1ccccc1)c1ccc(Br)cc1` it is 152 to 153 °C. Next, `O=C(O)c1c(-c2ccccc2)nc2c(C(F)(F)F)cccc2c1O`: 204 °C; `N#Cc1c(NC(=O)CO)cccc1N1CCOCC1`: 123 to 126 °C; `CC(=O)Nc1ccc(Cl)cc1C(=O)c1ccccc1`: 114 °C. The compound `CCCCCCC(C(C)O)n1cnc(C#N)c1N` (centres undefined) came in with a melting point of 110 to 111 °C. The compound `Cc1ccc(S(=O)(=O)c2ccc(N3CCNCC3)cc2N)cc1` yielded a melting point of 102 to 106 °C.

The compound `CCCCCc1cc2c(nc(O)n2CC2CCNCC2)c(N)n1` displayed a melting point of 246 to 249 °C. `Cc1ccc(-c2cnc(C#Cc3ccc(C)s3)s2)cc1` gave a melting point of 101 to 103 °C. The figure for `CNC(=S)Nc1ccc(NNC=O)cc1` is 176 to 178 °C; for `CN1c2nnnn2-c2ccc(Cl)cc2C1c1ccccc1` (centres undefined) it is 280 °C; for `CSc1nccc(-c2c(-c3ccc(F)cc3)ncn2C2CCN(C)CC2)n1` it is 181 to 182 °C.

Compound `CCN(c1ccccc1)c1ccc(C(=O)c2ccccc2)cc1N` returned a melting point of 82 to 82.5 °C. The figure for `N#Cc1ccc(O)c(NC(=O)C(=O)O)c1` is greater than 300 °C; for `CCCCOc1ccc(S(=O)(=O)C2(C(=O)NO)CCN(Cc3ccc(F)cc3)CC2)cc1` it is 112 °C; for `O=C1c2cc(Cl)ccc2-c2ccccc2CN1CCBr` it is 94 to 97 °C.

`CCN1CCN(Cc2ccc3c(c2)-c2[nH]nc(-c4ccsc4)c2C3)CC1` registered a melting point of 221 to 223 °C.

`COCCn1nc2c(N)nc3ncccc3c2c1CC(C)(C)O` came in with a melting point of 233 to 236 °C. The figure for `CCNC(=O)CC1CN=C(c2cc3cc(Oc4ccc(S(C)(=O)=O)nc4)cc(OC)c3[nH]2)S1` (centres undefined) is 236 to 237 °C; for `Cc1ccc(C(=O)NC(CCCCCl)C(=O)O)cc1` (centres undefined) it is 177 to 181 °C; for `NC(=O)N1C(=O)C(=C(OC(=O)c2cccnc2)c2cccs2)c2cc(F)c(Cl)cc21` it is 201 to 202 °C. Next, `N#CCc1cc(O)cc2cc(-c3ccc(O)cc3)oc12`: 128 to 130 °C.

`Nn1c(C2CCCCC2)nnc(-c2ccccc2)c1=O` displayed a melting point of 178 to 180 °C. The figure for `O=C(NCCO)c1cccc(-c2cccc3nn(Cc4ccc(F)c(F)c4)cc23)c1` is 116 to 117 °C; for `COC(=O)N=C(NC(=O)Nc1ccc(Cl)c(C(=O)OC(C)C)c1)SC` it is 93 to 94 °C; for `CCOC(=O)C1=C(C)NC(COC(C)=O)=C(C(=O)OCC)C1c1cccc([N+](=O)[O-])c1` (centres undefined) it is 133 to 135 °C.

Turning to `COc1cc2ccn3c(=O)c(C(=O)O)cnc3c2cc1OC`, the melting point lay within 298 to 301 °C. The figure for `COc1ccc(C2=N[C@H](c3ccccc3)[C@@H](OC(=O)Nc3ccc(Cl)c(Cl)c3)CO2)cc1` (racemic) is 130 °C. Consider `CC(C)(C)NC(=O)c1nn(-c2ccc(F)cc2F)c2c1[C@@H]1CC[C@@]2(C)C1(C)C`, for which the melting point is 161 to 163 °C. The figure for `Cc1cc(C)n(-c2nc(Nc3cc(C(F)(F)F)cc(C(F)(F)F)c3)c3ccccc3n2)n1` is 169 to 172 °C.

For `CCOC(=O)c1cn(Cc2ccc(OCc3ccccc3)cc2)nc1OCc1ccc(OCc2ccccc2)cc1`, the melting point fell in the range of 124 to 125 °C. The figure for `Nc1nnc(-c2cc(Cl)cc(Cl)c2Cl)c(N)n1` is 232 to 235 °C; for `CC(C)(C)OC(=O)NCCOCCNC1(c2ccccc2Cl)C(=O)Nc2ccc(Cl)cc21` (centres undefined) it is 138 to 140 °C; for `CCOC(=O)N1CCCC(Nc2nc3cncnc3n2Cc2ccc(F)cc2)CC1` (centres undefined) it is 157 °C.

`CCNC(=O)NCc1ccc(/C=C/C(c2cc(Cl)cc(Cl)c2)C(F)(F)F)cc1Cl` (centres undefined) gave a melting point of 177 to 178 °C.

`CC(C)=CCC1(C(F)(F)F)C(=O)NC(=O)NC1=O`: the melting point is 150 to 153 °C. Next, `CNC(=O)Oc1ccc2ccccc2c1`: 119 °C; `NC(=O)c1nc(-c2ccc(=O)[nH]c2)c(-c2ccccc2)nc1N`: 215 to 220 °C. For `C=CCn1c(=O)c(C(=O)OCC)c(N2CCN(C(=O)c3cccs3)CC2)c2cccnc21`, the melting point fell in the range of 89 to 96 °C.

In turn, `Cc1cc(C(C)(C)CC(C)(C)C)c(O)c(C)c1CC(N)=O` had a melting point of 179 to 181 °C. `CCOC(=O)C(Cl)=NO`: the melting point is 75 to 80 °C. The compound `c1ccc2c3c([nH]c2c1)CNCC3` displayed a melting point of 190 to 191 °C. Next, `COc1nncc(-c2cccc(C(F)(F)F)c2)n1`: 95 to 97 °C; `CC(C)=CCC/C(C)=C/CC/C(C)=C/C(N)=O`: 53 to 53.5 °C.

In the case of `COc1ccc(C(C)=O)c2cccc(S(=O)(=O)N(C)C)c12`, the melting point fell in the range of 124 to 127 °C. The figure for `CN(C)C=Nc1ccc(I)cc1C#N` is 53 to 55 °C.

The record behind these values is a melting point compilation (Tetko et al.; mined from patent text by program, amines drawn as free bases though some values may be those of a salt).
